SMILES strings stand for the structures.

This assay deals with ROCK2 (Homo sapiens, UniProt O75116). As to the kind of experiment: ROCK assay: phosphorylation of FITC peptide substrate, LABCHIP 3000 mobility shift. In kind it is biochemical. Conditions: 5 μM ATP, 1.5 μM peptide substrate; read-out: ROCK2 Activity (ROCK IC50 range). Put shortly:
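IC50 values come from curve-fitting percent kinase inhibition across a compound dilution series. The reaction is started with Rho kinase variant in HEPES pH 7.5 buffer with MgCl2, Brij-35 and DTT, with 5 μM ATP, 1.5 μM FITC-labelled peptide and under 2% DMSO. After EDTA quench, product and substrate are separated by microfluidic mobility shift.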

ROCK2, sequence (O75116 whole entry, species assumed): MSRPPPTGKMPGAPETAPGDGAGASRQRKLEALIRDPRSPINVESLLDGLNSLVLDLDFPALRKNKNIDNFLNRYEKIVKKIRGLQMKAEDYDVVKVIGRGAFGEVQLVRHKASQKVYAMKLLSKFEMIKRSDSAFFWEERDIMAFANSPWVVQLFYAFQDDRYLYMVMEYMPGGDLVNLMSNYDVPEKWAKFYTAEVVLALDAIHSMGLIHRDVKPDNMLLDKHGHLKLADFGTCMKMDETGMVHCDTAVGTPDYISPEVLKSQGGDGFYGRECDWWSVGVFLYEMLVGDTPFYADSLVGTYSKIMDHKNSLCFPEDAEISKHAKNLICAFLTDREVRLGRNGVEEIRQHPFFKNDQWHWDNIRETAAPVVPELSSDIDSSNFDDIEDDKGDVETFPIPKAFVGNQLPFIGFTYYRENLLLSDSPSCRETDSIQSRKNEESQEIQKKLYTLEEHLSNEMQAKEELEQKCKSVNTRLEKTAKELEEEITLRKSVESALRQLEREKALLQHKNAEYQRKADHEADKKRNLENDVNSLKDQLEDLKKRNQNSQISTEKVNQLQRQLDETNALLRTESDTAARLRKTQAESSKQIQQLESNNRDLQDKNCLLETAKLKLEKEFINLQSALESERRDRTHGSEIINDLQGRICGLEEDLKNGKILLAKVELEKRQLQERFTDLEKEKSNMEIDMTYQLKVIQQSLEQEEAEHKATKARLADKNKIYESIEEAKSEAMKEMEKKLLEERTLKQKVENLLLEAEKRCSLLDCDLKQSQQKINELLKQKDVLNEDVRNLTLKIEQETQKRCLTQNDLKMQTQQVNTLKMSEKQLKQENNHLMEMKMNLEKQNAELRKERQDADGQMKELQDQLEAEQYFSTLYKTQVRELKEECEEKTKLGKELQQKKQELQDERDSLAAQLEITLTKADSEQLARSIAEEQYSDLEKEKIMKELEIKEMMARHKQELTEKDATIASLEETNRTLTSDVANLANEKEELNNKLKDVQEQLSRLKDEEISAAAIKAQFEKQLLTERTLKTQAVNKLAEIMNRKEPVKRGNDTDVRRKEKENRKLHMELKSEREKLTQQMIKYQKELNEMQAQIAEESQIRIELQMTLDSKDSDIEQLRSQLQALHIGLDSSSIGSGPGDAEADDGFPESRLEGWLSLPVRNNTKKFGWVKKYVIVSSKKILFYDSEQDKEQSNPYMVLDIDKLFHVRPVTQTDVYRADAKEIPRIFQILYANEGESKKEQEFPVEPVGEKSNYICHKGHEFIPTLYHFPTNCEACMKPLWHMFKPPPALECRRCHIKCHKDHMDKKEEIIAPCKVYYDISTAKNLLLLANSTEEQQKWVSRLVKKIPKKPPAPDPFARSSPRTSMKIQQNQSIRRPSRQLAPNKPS

In the case of `[H][C@]1(c2n[nH]c(=O)c3ccccc32)C[C@]2(C[C@@H](NC(=O)c3cc4cc(F)cc(S(C)(=O)=O)c4[nH]3)C2)C1` (stereo partly drawn) [Example 335, 5-fluoro-7-(methylsulfonyl)-N-((aR)-6-(4-oxo-3,4-dihydrophthalazin-1-yl)spiro[3.3]heptan-2-yl)-1H-indole-2-carboxamide], the IC50 lay in the range of 2.01 to 5 nM.

`O=C(N[C@H]1CC2(C1)C[C@H](c1n[nH]c(=O)c3ccccc31)C2)c1ccn(CC(F)F)n1` (single isomer, unassigned) [Example 16]: the IC50 was 2.01 to 5 nM. Next, `[H][C@]1(c2n[nH]c(=O)c3ccccc32)C[C@]2(C[C@@H](NC(=O)c3cc4ccc(F)cc4[nH]3)C2)C1` (stereo partly drawn) [Example 320, 6-fluoro-N-((aR)-6-(4-oxo-3,4-dihydrophthalazin-1-yl)spiro[3.3]heptan-2-yl)-1H-indole-2-carboxamide]: 5.1 to 15 nM. For `Cn1cc(-c2ccc(NC(=O)NC3CC4(C3)CC(c3n[nH]c(=O)c5ccccc35)C4)cc2)c(C(F)(F)F)n1` [Example 232, 1-(4-(1-methyl-3-(trifluoromethyl)-1H-pyrazol-4-yl)phenyl)-3-((aR)-6-(4-oxo-3,4-dihydrophthalazin-1-yl)spiro[3.3]heptan-2-yl)urea], the IC50 fell in the range of 5.1 to 15 nM.

On to `O=C(C1CC2(C1)CC(c1n[nH]c(=O)c3ccccc13)C2)N1Cc2ccccc2C1` (stereo not shown) [Example 47, 4-[6-(2,3-dihydro-1H-isoindole-2-carbonyl)spiro[3.3]heptan-2-yl]-1,2-dihydrophthalazin-1-one], for which the IC50 was in the range of 100 to 2100 nM. Turning to `O=C(CC1CC2(C1)CC(c1n[nH]c(=O)c3ccccc13)C2)N1CCc2ccccc21` (stereo not shown) [Example 52, 4-(6-(2-(Indolin-1-yl)-2-oxoethyl)spiro[3.3]heptan-2-yl)phthalazin-1(2H)-one], the IC50 fell in the range of 15.1 to 100 nM. For `O=C(NC1CC2(C1)CC(c1n[nH]c(=O)c3ccccc13)C2)c1cnn2c(C3CC3)c(O)ccc12` (stereo not drawn) [Example 128, 7-cyclopropyl-6-hydroxy-N-((αR)-6-(4-oxo-3,4-dihydrophthalazin-1-yl)spiro[3.3]heptan-2-yl)pyrazolo[1,5-α]pyridine-3-carboxamide], the IC50 lay in the range of 2.01 to 5 nM.

For `[H][C@]1(c2n[nH]c(=O)c3ccccc32)C[C@]2(C[C@@H](NC(=O)c3cn4cccc(C)c4n3)C2)C1` (stereo partly drawn) [Example 362, 8-methyl-N-((aR)-6-(4-oxo-3,4-dihydrophthalazin-1-yl)spiro[3.3]heptan-2-yl)imidazo[1,2-a]pyridine-2-carboxamide], the IC50 fell in the range of 15.1 to 100 nM. Take `O=C(NC1CC2(C1)CC(c1n[nH]c(=O)c3ccccc13)C2)c1cn2c(n1)sc1ccccc12` [Example 93, N-((aR)-6-(4-oxo-3,4-dihydrophthalazin-1-yl)spiro[3.3]heptan-2-yl)benzo[d]imidazo[2,1-b]thiazole-2-carboxamide]: the IC50 was in the range of 2.01 to 5 nM. On to `[H][C@]1(c2n[nH]c(=O)c3ccccc32)C[C@@]2(C[C@H](NC(=O)c3cnc4cc(N5CC[C@H](F)C5)ccn34)C2)C1` (stereo partly drawn) [Example 394, 7-((S)-3-fluoropyrrolidin-1-yl)-N-((aR)-6-(4-oxo-3,4-dihydrophthalazin-1-yl)spiro[3.3]heptan-2-yl)imidazo[1,2-a]pyridine-3-carboxamide], for which the IC50 lay within 0.2 to 2 nM. Next, `COc1cccc(-c2ccc3c(C(=O)NC4CC5(C4)CC(c4n[nH]c(=O)c6ccccc46)C5)nn(CC(C)(C)O)c3c2)n1` (stereo not shown) [Example 150, 1-(2-hydroxy-2-methylpropyl)-6-(6-methoxypyridin-2-yl)-N-((αR)-6-(4-oxo-3,4-dihydrophthalazin-1-yl)spiro[3.3]heptan-2-yl)-1H-indazole-3-carboxamide]: 2.01 to 5 nM; `[H][C@]1(c2n[nH]c(=O)c3ccccc32)C[C@]2(C[C@@H](NC(=O)c3cc4c(Cl)ccc(C)c4[nH]3)C2)C1` (stereo partly drawn) [Example 302, 4-chloro-7-methyl-N-((aR)-6-(4-oxo-3,4-dihydrophthalazin-1-yl)spiro[3.3]heptan-2-yl)-1H-indole-2-carboxamide]: 0.2 to 2 nM.

For `[H][C@]1(c2n[nH]c(=O)c3ccccc32)C[C@]2(C[C@@H](NC(=O)c3cnc4cc(-c5cnn(C)c5)ccn34)C2)C1` (stereo partly drawn) [Example 440, 7-(1-methyl-1H-pyrazol-4-yl)-N-((aR)-6-(4-oxo-3,4-dihydrophthalazin-1-yl)spiro[3.3]heptan-2-yl)imidazo[1,2-a]pyridine-3-carboxamide], the IC50 is 0.2 to 2 nM. On to `O=c1[nH]nc([C@H]2CC3(C[C@H](Nc4nncc5ccccc45)C3)C2)c2ccccc12` (stereo partly drawn) [Example 45, 4-((aR)-6-(Phthalazin-1-ylamino)spiro[3.3]heptan-2-yl)phthalazin-1(2H)-one(2H)-one], for which the IC50 was 5.1 to 15 nM. Next, `[H][C@]1(c2n[nH]c(=O)c3ccccc32)C[C@]2(C[C@@H](NC(=O)c3cnc4c(C(F)(F)F)cccn34)C2)C1` (stereo partly drawn) [Example 381, N-((aR)-6-(4-oxo-3,4-dihydrophthalazin-1-yl)spiro[3.3]heptan-2-yl)-8-(trifluoro-methyl)imidazo[1,2-a]pyridine-3-carboxamide]: 2.01 to 5 nM. For the compound `Cc1sc(N2CC[C@@H](F)C2)nc1C(=O)N[C@H]1CC2(C1)C[C@H](c1n[nH]c(=O)c3ccccc31)C2` (stereo partly drawn) [Example 53, 2-((R)-3-fluoropyrrolidin-1-yl)-5-methyl-N-((aR)-6-(4-oxo-3,4-dihydrophthalazin-1-yl)spiro[3.3]heptan-2-yl)thiazole-4-carboxamide], the IC50 lay in the range of 2.01 to 5 nM. With `Cn1cc(-c2ccc3c(C(=O)N[C@H]4CC5(C4)C[C@H](c4n[nH]c(=O)c6ccccc64)C5)onc3c2)cn1` (stereo partly drawn) [Example 277, 6-(1-methyl-1H-pyrazol-4-yl)-N-((aR)-6-(4-oxo-3,4-dihydrophthalazin-1-yl)spiro[3.3]heptan-2-yl)benzo[c]isoxazole-3-carboxamide], the IC50 is 0.2 to 2 nM. Consider `O=C(NC1CC2(C1)CC(c1n[nH]c(=O)c3ccccc13)C2)c1cnn2cc(OC(F)F)ccc12` [Example 79, 6-(difluoromethoxy)-N-((aR)-6-(4-oxo-3,4-dihydrophthalazin-1-yl)spiro[3.3]heptan-2-yl)pyrazolo[1,5-a]pyridine-3-carboxamide], for which the IC50 is 2.01 to 5 nM.

As to `CN1CCN(c2ccc3c(C(=O)NC4CC5(C4)CC(c4n[nH]c(=O)c6ccccc46)C5)cnn3c2)CC1` [Example 86, 6-(4-methylpiperazin-1-yl)-N-((aR)-6-(4-oxo-3,4-dihydrophthalazin-1-yl)spiro[3.3]heptan-2-yl)pyrazolo[1,5-a]pyridine-3-carboxamide], the IC50 was 0.2 to 2 nM. Regarding `CC(C)(O)CCc1ccc2c(C(=O)N[C@H]3CC4(C3)C[C@H](c3n[nH]c(=O)c5ccccc53)C4)cnn2c1` (stereo partly drawn) [Example 198, 6-(3-hydroxy-3-methylbutyl)-N-((aR)-6-(4-oxo-3,4-dihydrophthalazin-1-yl)spiro[3.3]heptan-2-yl)pyrazolo[1,5-a]pyridine-3-carboxamide], the half-inhibitory concentration (IC50) was in the range of 0.2 to 2 nM. As to `CC(C)(O)Cn1nc(C(=O)N[C@H]2CC3(C2)C[C@H](c2n[nH]c(=O)c4ccccc42)C3)c2ccc(C3CC3)cc21` (stereo partly drawn) [Example 142, 6-cyclopropyl-1-(2-hydroxy-2-methylpropyl)-N-((aR)-6-(4-oxo-3,4-dihydrophthalazin-1-yl)spiro[3.3]heptan-2-yl)-1H-indazole-3-carboxamide], the IC50 fell in the range of 2.01 to 5 nM. For `O=C(N[C@H]1CC2(C1)C[C@H](c1n[nH]c(=O)c3ccccc31)C2)c1cnn2cc(CCCN3CCOCC3)ccc12` (stereo partly drawn) [Example 191, 6-(3-morpholinopropyl)-N-((aR)-6-(4-oxo-3,4-dihydrophthalazin-1-yl)spiro[3.3]heptan-2-yl)pyrazolo[1,5-a]pyridine-3-carboxamide], the IC50 was in the range of 2.01 to 5 nM. As for `[H][C@]1(c2n[nH]c(=O)c3ccccc32)C[C@]2(C[C@@H](NC(=O)c3cccc(-c4nc(C)cs4)c3)C2)C1` (stereo partly drawn) [Example 340, 3-(4-methylthiazol-2-yl)-N-((aR)-6-(4-oxo-3,4-dihydrophthalazin-1-yl)spiro[3.3]heptan-2-yl)benzamide], the IC50 was in the range of 5.1 to 15 nM.

For `[2H]C([2H])([2H])n1cc(-c2ccc(NC(=O)NC3CC4(C3)CC(c3n[nH]c(=O)c5ccccc35)C4)cc2)cn1` [Example 229, 1-(4-(1-(^2H3)methyl-1H-pyrazol-4-yl)phenyl)-3-((aR)-6-(4-oxo-3,4-dihydrophthalazin-1-yl)spiro[3.3]heptan-2-yl)urea], the IC50 was 5.1 to 15 nM. As for `CC(C)(O)Cn1nc(C(=O)NC2CC3(C2)CC(c2n[nH]c(=O)c4ccccc24)C3)c2ccc(C=Cc3ccccc3)cc21` (stereo not shown) [Example 148, 1-(2-hydroxy-2-methylpropyl)-N-((αR)-6-(4-oxo-3,4-dihydrophthalazin-1-yl)spiro[3.3]heptan-2-yl)-6-((E)-styryl)-1H-indazole-3-carboxamide], the 50% inhibitory concentration (IC50) is 5.1 to 15 nM.

As to `Cc1sc(N2CCC(C#N)C2)nc1C(=O)NC1CC2(C1)CC(c1n[nH]c(=O)c3ccccc13)C2` [Example 56, 2-((R)-3-cyanopyrrolidin-1-yl)-5-methyl-N-((aR)-6-(4-oxo-3,4-dihydrophthalazin-1-yl)spiro[3.3]heptan-2-yl)thiazole-4-carboxamide], the IC50 fell in the range of 5.1 to 15 nM. In the case of `[H][C@]1(c2n[nH]c(=O)c3ccccc32)C[C@]2(C[C@@H](NC(=O)c3cccc(OC(F)F)c3)C2)C1` (stereo partly drawn) [Example 354, 3-(difluoromethoxy)-N-((aR)-6-(4-oxo-3,4-dihydrophthalazin-1-yl)spiro[3.3]heptan-2-yl)benzamide], the 50% inhibitory concentration (IC50) was in the range of 5.1 to 15 nM. The same measure for `CC(C)(O)Cn1nc(C(=O)NC2CC3(C2)CC(c2n[nH]c(=O)c4ccccc24)C3)c2ccc(/C=C\C3CC3)cc21` (stereo not shown) [Example 151, 6-((Z)-2-cyclopropylvinyl)-1-(2-hydroxy-2-methylpropyl)-N-((αR)-6-(4-oxo-3,4-dihydrophthalazin-1-yl)spiro[3.3]heptan-2-yl)-1H-indazole-3-carboxamide]: 5.1 to 15 nM.

The term IC50 denotes the concentration at which inhibition is half-maximal.

These data come from US9902702B2, “Spirocycloheptanes as inhibitors of rock” (BRISTOL-MYERS SQUIBB COMPANY, priority 2014, dated 2018).
